Test results reported in patent US20220226338A1, “Methods of Treating Cancer Using CHK1 Inhibitors” (Sierra Oncology, Inc., priority 2019, published 2022).
Where “and” joins values, the source holds several entries; their conditions need not be identical. Equal entries are not always repeated.

How the values were obtained:
[1] = tested on: cryopreserved hepatocytes; test: Stability and metabolites in cryopreserved human hepatocytes; format: in vitro ADME
Protocol: The formation of SRA737-related metabolites was determined in cryopreserved hepatocytes from human, mouse, rat, dog, minipig and monkey samples after incubation with SRA737 at a nominal concentration of 10 μM for up to 4 hours. […] In the human hepatocyte preparation, approximately 67% of the parent remained after 4 hours of incubation compared to 75% and 7% in the rat and minipig preparations, respectively. Eight human SRA737 metabolites were observed. All SRA737 metabolites formed by human hepatocytes were also formed by monkey hepatocytes. Six metabolites were present at equal or greater abundance in the monkey.

[2] = tested on: genetically defined tumors (HGSOC, CRC, mCRPC, NSCLC, SCCHN, SCCA); test: SRA737 monotherapy clinical study (SRA737-01), anti-tumor activity per RECIST v1.1; format: in vivo, human
Protocol: An in-human clinical trial is conducted to confirm efficacy of SRA737 monotherapy methods of treatment and patient selection strategies disclosed herein for prospectively-selected genetically-defined subjects with tumor types known to have a high prevalence of genomic alterations expected to sensitize the tumor to Chk1 inhibition (“Cohort Expansion Phase”). The Cohort Expansion Phase consists of 6 indication-specific expansion cohorts of approximately 20 prospectively-selected genetically-defined subjects each. The cohorts are subjects with previously treated metastatic colorectal cancer [CRC], high grade serous ovarian cancer [HGSOC] without CCNE1 gene amplification, HGSOC with CCNE1 gene amplification (or alternative genetic alteration with similar functional effect), metastatic castration-resistant prostate cancer [mCRPC], advanced non-small cell lung cancer [NSCLC], and squamous cell carcinoma of the head and neck [HNSCC], or squamous cell carcinoma of the anus [SCCA]. Subjects are initially administered SRA737 following the dosing regimen established in Example 4. The dosing regimen in some cases changes during the course of the trial.
All subjects who have measurable disease, receive at least one cycle of SRA737 and have a baseline plus at least 1 post-baseline assessment of disease are evaluable for response. Subjects who develop clear evidence of PD without a formal disease assessment and those without a formal disease assessment before study withdrawal are considered non-responders. Complete responses and PRs are required to be confirmed by a subsequent assessment at least 4 weeks later. Stable Disease (SD) determination requires that the relevant criteria be met at least once, a minimum of 6 weeks after the initial dose of SRA737 is given.
Response criteria are defined below: • a. Complete Response (CR): Disappearance of all target lesions. Any pathological lymph nodes (whether target or non-target), in general, have reduction in short axis to <10 mm. • b. Partial Response (PR): At least a 30% decrease in the sum of diameters of target lesions, taking as reference the baseline sum diameters. • c. Progressive Disease (PD): At least a 20% increase in the sum of diameters of target lesions, taking as reference the smallest sum on study (this includes the baseline sum if that is the smallest on study). […] (Note: the appearance of one or more new lesions is also considered progression). • d. Stable Disease (SD): Neither sufficient shrinkage to qualify for PR nor sufficient increase to qualify for PD, taking as reference the smallest sum diameters while on study.
The Cohort Expansion phase was contemporaneously initiated when circulating plasma concentrations of SRA737 exceeded the minimum effective concentration of SRA737 modelled from murine efficacy studies. Thereafter, experience gained in the ongoing Dose Escalation phase informed dose selection for expansion cohorts. The Cohort Expansion phase enrolled subjects with genetically defined tumors that harbored genomic alterations hypothesized to confer sensitivity to Chk1 inhibition, which were prospectively selected by next-generation sequencing (FoundationOne). Subjects with the following tumors were eligible for enrollment: ia) high grade serous ovarian cancer (HGSOC), ib) HGSOC putatively enriched for CCNE1 gene network amplification, ii) colorectal cancer (CRC), iii) metastatic castration-resistant prostate cancer (mCRPC), iv) non-small cell lung cancer (NSCLC), and v) squamous cell carcinomas (head and neck (SCCHN); anus (SCCA)).
Preliminary anti-tumor activity was assessed by target tumor response and overall response in accordance with RECIST v1.1.

[3] = tested on: plasma protein; test: Plasma protein binding, rapid equilibrium dialysis, dog plasma; format: in vitro ADME; conditions: 10 μM
Protocol: The PK of SRA737 have been determined in the mouse, rat, dog and monkey following oral and IV administration (Table 3). […] An acceptable terminal elimination t1/2 was also observed in each species. […] The plasma protein binding of SRA737 at 1 and 10 μM was examined in mouse, minipig, monkey and human plasma using ultracentrifugation and in dog plasma (10 μM) using rapid equilibrium dialysis.

[4] = FA/BRCA gene network alterations

N#Cc1cnc(Nc2cc(NCC3CNCCO3)c(C(F)(F)F)cn2)cn1 (stereo not shown) [SRA737, 5-[[4-[[morpholin-2-yl]methylamino]-5-(trifluoromethyl)-2-pyridyl]amino]pyrazine-2-carbonitrile]
number of human SRA737 metabolites observed [1]: Eight | parent remaining ([1]; 10 μM, after 4 hours of incubation): approximately 67% | confirmed RECIST partial or complete response [2]: no subject had a confirmed RECIST partial or complete response | responses of subjects with unambiguously positive CCNE1 amplification ([2]; 4/24 HGSOC subjects): 3 SD and 1 Progressive Disease (PD) | subjects with best overall response of SD ([2]; 107 subjects treated): 34 (32%) n (%) | DCR ([2]; CCNE gene network alterations): 67% | DCR [2, 4]: 71% | DOS [2, 4]: 3.8 cycles | Disease Control Rate (DCR) ([2]; HGSOC cohort): 54% | maximal target tumor decreases ([2]; HGSOC subjects): 27% and 29% | anti-tumor activity by tumor type ([2]; HGSOC, CRC, mCRPC and NSCLC tumors): Anti-tumor activity was observed | DCR ([2]; PI3K gene network alterations (PIK3CA, AKT, PTEN)): 77% | PDs ([2]; RAS network mutations): 15/20 | duration on study (DOS) ([2]; RAS network mutations): 2 cycles | overall average tumor % change ([2]; RAS network mutations): +20% | DCR ([2]; activating mutations in the RAS network): 25% | subjects with durable stable disease (SD) lasting ≥4 months ([2]; data cut off 3 May 2019): 22 (21%) n (%) | Percentage Bound [3]: 68.8% | Percentage Free [3]: 31.2%
